Measurements as given in patent EP4737445A1, “NOVEL SATURATED HETEROCYCLE-SUBSTITUTED HETEROARYL-CARBONOHYDRAZONOYL DICYANIDE COMPOUND AND USE THEREOF” (Korea Institute of Science and Technology, priority 2023, dated 2025).

Key:
Tau-BiFC cells = assay: Cell viability (stained nuclei count) in Tau-BiFC cells; format: cell-based; settings: @10 µM; Tau-BiFC cell line; Forskolin-only group = 100%
In short: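 Tau-BiFC cells were co-treated with compound (1, 3, 10 µM for screening; 0.03–30 µM for IC50) and 30 µM Forskolin for 48 h. BiFC fluorescence was normalised to the Forskolin-only window for aggregation; viability came from Hoechst-stained nuclei counts relative to Forskolin-only (100%). IC50 was derived by nonlinear regression.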

[1] = Liver microsomal stability, mouse; format: in vitro ADME; settings: 1 µM compound; 0.5 mg/mL microsomes; NADPH; 30 minutes at 37°C
Method: Liver microsomal stability by the compounds prepared according to Examples 1 to 46 was confirmed. Specifically, four types of liver microsomes (human, dog, rat, and mouse each at 0.5 mg/mL), 0.1 M phosphate buffer solution (pH 7.4), and the compounds at 1 µM concentration were added and pre-incubated at 37°C for 5 minutes, and then NADPH generation system solution was added and incubated at 37°C for an additional 30 minutes. Thereafter, an acetonitrile solution containing an internal standard (chloropropamide) was added to terminate the reaction, and after centrifugation for 5 minutes (14,000 rpm, 4°C), the supernatant was injected into an LC-MS/MS system to analyze the substrate drug, thereby evaluating the metabolic stability of 8 compounds.
The amount of remaining substrate through the reaction was analyzed using a Shimadzu Nexera XR system and TSQ vantage (Thermo). A Kinetex XB-C18 (2.1 × 100 mm, 2.6 µm, particle size; Phenomenex, USA) was used as the HPLC column, and (A) distilled water containing 0.1% formic acid and (B) acetonitrile containing 0.1% formic acid were used as mobile phases. Analyst software (version 1.6.3) and Xcalibur (version 1.6.1) were used for data analysis. The calculated results are shown in Table 5 below: Liver microsomal stability data of novel compounds from […] (human, rat, and mouse).

CYP2C9 = biological target: T1, CYP2C9 (Homo sapiens, UniProt P11712); assay: CYP isoenzyme activity inhibition in human liver microsomes, CYP2C9; format: in vitro ADME; settings: 10 µM compound; human liver microsomes 0.25 mg/mL; relative to control without compound
T1 construct: human liver microsomes (0.25 mg/mL); from tissue; host or cells: human liver microsomes
Method: (§1) The CYP isoenzyme activity inhibitory effect by the compounds prepared according to Examples 1 to 46 was confirmed. Specifically, human liver microsomes (0.25 mg/mL), 0.1 M phosphate buffer solution (pH 7.4), a substrate drug cocktail of five drug metabolizing enzymes (Phenacetin 50 µM, Diclofenac 10 µM, S-mephenytoin 100 µM, Dextromethorphan 5 µM, and Midazolam 2.5 µM), and the compounds were added at concentrations of 0 or 10 µM, respectively, and pre-incubated at 37°C for 5 minutes, and then NADPH generation system solution was added and incubated at 37°C for an additional 15 minutes. Thereafter, an acetonitrile solution containing an internal standard (Terfenadine) was added to terminate the reaction, and after centrifugation for 5 minutes (14,000 rpm, 4°C), the supernatant was injected into an LC-MS/MS system to simultaneously analyze the metabolites of the substrate drugs, thereby evaluating the drug metabolizing enzyme inhibitory activity.
(§2) The metabolites of each CYP isoenzyme marker drug generated through the reaction were analyzed using a Shimadzu Nexera XR system and TSQ vantage (Thermo). A Kinetex C18 (2.1 × 100 mm, 2.6 µm, particle size; Phenomenex, USA) was used as the HPLC column, and (A) distilled water containing 0.1% formic acid and (B) acetonitrile containing 0.1% formic acid were used as mobile phases, and a gradient program as shown in Table 6 below was applied.
(§3) The generated metabolites were quantified using MRM (Multiple Reaction Monitoring) quantitative mode, and Xcalibur (version 1.6.1) was used for data analysis. To show the CYP isoenzyme activity inhibitory effect of the novel compounds prepared according to the Examples of the disclosure, the % activity of CYP isoenzymes relative to the control group without compound addition is shown in Table 6 below. Additionally, to confirm the difference in effect according to substituents, Comparative Compounds 1 and 5, which are two compounds that share a similar parent nucleus structure with Compounds 1 to 46 of the disclosure while Cy is substituted with aromatic heteroaryl instead of saturated heterocyclyl, were selected as comparative compounds and their activities are shown together.

CYP2D6 = biological target: T2, CYP2D6 (Homo sapiens, UniProt P10635); assay: CYP isoenzyme activity inhibition in human liver microsomes, CYP2D6; format: in vitro ADME; settings: 10 µM compound; human liver microsomes 0.25 mg/mL; relative to control without compound
T2 construct: human liver microsomes (0.25 mg/mL); from tissue; host or cells: human liver microsomes
Method: as §1, §2, §3

T1 sequence (P11712 whole entry): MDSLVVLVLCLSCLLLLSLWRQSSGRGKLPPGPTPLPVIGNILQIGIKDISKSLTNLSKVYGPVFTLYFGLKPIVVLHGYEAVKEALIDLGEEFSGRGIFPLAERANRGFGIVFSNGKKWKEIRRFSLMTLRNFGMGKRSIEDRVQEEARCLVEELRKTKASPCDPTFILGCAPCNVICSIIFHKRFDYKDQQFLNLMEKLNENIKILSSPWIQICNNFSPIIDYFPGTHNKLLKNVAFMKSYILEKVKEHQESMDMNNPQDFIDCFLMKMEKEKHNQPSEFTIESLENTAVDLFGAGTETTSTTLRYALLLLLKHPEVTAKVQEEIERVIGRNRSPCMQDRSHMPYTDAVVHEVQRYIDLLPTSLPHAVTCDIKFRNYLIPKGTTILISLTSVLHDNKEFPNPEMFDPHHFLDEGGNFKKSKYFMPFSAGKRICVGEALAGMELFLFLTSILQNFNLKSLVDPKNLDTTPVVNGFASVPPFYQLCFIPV
T2 sequence (P10635 whole entry): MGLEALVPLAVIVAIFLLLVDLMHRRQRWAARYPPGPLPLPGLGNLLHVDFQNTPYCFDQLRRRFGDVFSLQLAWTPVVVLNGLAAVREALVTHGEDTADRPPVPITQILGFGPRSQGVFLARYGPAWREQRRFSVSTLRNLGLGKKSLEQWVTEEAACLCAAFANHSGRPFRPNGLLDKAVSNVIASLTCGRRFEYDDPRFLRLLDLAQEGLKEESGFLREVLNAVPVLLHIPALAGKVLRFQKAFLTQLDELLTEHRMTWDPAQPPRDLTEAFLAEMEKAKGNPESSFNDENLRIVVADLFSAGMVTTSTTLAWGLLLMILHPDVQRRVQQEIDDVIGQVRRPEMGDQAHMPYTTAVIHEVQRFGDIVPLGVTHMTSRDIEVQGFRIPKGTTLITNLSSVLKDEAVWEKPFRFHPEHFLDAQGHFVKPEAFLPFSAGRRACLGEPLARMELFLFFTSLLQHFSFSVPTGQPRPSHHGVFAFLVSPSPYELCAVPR

Row | Structure (SMILES) | Cell viability (% @10µM) (Tau-BiFC cells) [%] | Mouse microsomes (% remaining) [1] [% remaining] | CYP2C9 (% activity) (CYP2C9) | CYP2D6 (% activity) (CYP2D6)
1 | CC1CN(c2nc3ccc(NN=C(C#N)C#N)cc3o2)CC(C)O1 (centres unmarked) [Compound 18, (2-(2,6-dimethylmorpholino)benzo[d]oxazol-6-yl)carbonohydrazonoyl dicyanide] | 100 | 86.2 | > 100 | 97
2 | Cn1c(N2CCOCC2)nc2cc(NN=C(C#N)C#N)ccc21 [Compound 6, (1-methyl-2-morpholino-1H-benzo[d]imidazol-5-yl)carbonohydrazonoyl dicyanide] | 104 | 87.3 | > 100 | > 100
3 | N#CC(C#N)=NNc1ccc2nc(N3C4CCC3COC4)oc2c1 [Compound 20, (2-(3-oxa-8-azabicyclo[3.2.1]octan-8-yl)benzo[d]oxazol-6-yl)carbonohydrazonoyl dicyanide] | 96 | 95.4 | 48 | 57.5
4 | CC1CN(c2nc3ccc(NN=C(C#N)C#N)cc3s2)CCO1 (centres unmarked) [Compound 12, (2-(2-methylmorpholino)benzo[d]thiazol-6-yl)carbonohydrazonoyl dicyanide] | 102 | 85.1 | 65.1 | 94.8
5 | N#CC(C#N)=NNc1ccc2nc(N3CC4CCC(C3)O4)oc2c1 [Compound 26, (2-(8-oxa-3-azabicyclo[3.2.1]octan-3-yl)benzo[d]oxazol-6-yl)carbonohydrazonoyl dicyanide] | 99 | 99 | 53.3 | 82.1
6 | COC1CCN(c2nc3ccc(NN=C(C#N)C#N)cc3s2)CC1 [Compound 9, (2-(4-methoxypiperidin-1-yl)benzo[d]thiazol-6-yl)carbonohydrazonoyl dicyanide] | 100 | 83.8 | 60.7 | > 100
7 | CC1CN(c2nc3ccc(NN=C(C#N)C#N)cc3s2)CC(C)O1 (centres unmarked) [Compound 10, (2-(2,6-dimethylmorpholino)benzo[d]thiazol-6-yl)carbonohydrazonoyl dicyanide] | 109 | 87.3 | 76.8 | 93.8
8 | N#CC(C#N)=NNc1ccc2sc(N3CCOCC3)nc2c1 [Compound 1, (2-morpholinobenzo[d]thiazol-5-yl)carbonohydrazonoyl dicyanide] | 100 | 49.3 | 82.5 | > 100
9 | Cn1c(N2CCOCC2)nc2ccc(NN=C(C#N)C#N)cc21 [Compound 5, (1-methyl-2-morpholino-1H-benzo[d]imidazol-6-yl)carbonohydrazonoyl dicyanide] | 100 | 91.9 | 98 | > 100
10 | N#CC(C#N)=NNc1ccc2oc(N3CCOCC3)nc2c1 [Compound 3, (2-morpholinobenzo[d]oxazol-5-yl)carbonohydrazonoyl dicyanide] | 100 | 80.6 | > 100 | > 100
11 | COC1CCN(c2nc3ccc(NN=C(C#N)C#N)cc3o2)CC1 [Compound 17, (2-(4-methoxypiperidin-1-yl)benzo[d]oxazol-6-yl)carbonohydrazonoyl dicyanide] | 100 | > 100 | 73.8 | 89.5
12 | CC1CN(C(=O)Nc2nc3ccc(NN=C(C#N)C#N)cc3s2)CC(C)O1 (centres unmarked) [Compound 39, (2-(2,6-dimethylmorpholine-4-carboxamido)benzo[d]thiazol-6-yl)carbonohydrazonoyl dicyanide] | 98 | 88.4 | 42.9 | 85.9
13 | N#CC(C#N)=NNc1ccc2nc(N3CC[C@@H](F)C3)oc2c1 [Compound 41, (R)-(2-(3-fluoropyrrolidin-1-yl)benzo[d]oxazol-6-yl)carbonohydrazonoyl dicyanide] | 100 | 65.3 | 51.2 | 86.8
14 | Cn1c(N2C3CCC2COC3)nc2cc(NN=C(C#N)C#N)ccc21 [Compound 35, (2-(3-oxa-8-azabicyclo[3.2.1]octan-8-yl)-1-methyl-1H-benzo[d]imidazol-5-yl)carbonohydrazonoyl dicyanide] | 100 | 95.1 | 84.3 | 94.9
15 | CN1CCN(c2nc3ccc(NN=C(C#N)C#N)cc3s2)CC1 [Compound 8, (2-(4-methylpiperazin-1-yl)benzo[d]thiazol-6-yl)carbonohydrazonoyl dicyanide] | 101 | 77.4 | > 100 | > 100
16 | N#CC(C#N)=NNc1ccc2nc(NC(=O)N3CC4CCC(C3)O4)sc2c1 [Compound 40, (2-(8-oxa-3-azabicyclo[3.2.1]octane-3-carboxamido)benzo[d]thiazol-6-yl)carbonohydrazonoyl dicyanide] | 98 | 93.4 | 46.9 | 88.6
17 | CC(=O)N1CCN(c2nc3ccc(NN=C(C#N)C#N)cc3s2)CC1 [Compound 30, (2-(4-acetylpiperazin-1-yl)benzo[d]thiazol-6-yl)carbonohydrazonoyl dicyanide] | 99 | 83.8 | 86.2 | 88.9
